Data set [1] concerns rats. Format: in vivo, rat. The note with it: rats of the MAP/HR figures, 2×ED50, tail vein; same value in min. As for the experimental part: The Effects of the Compounds on the Circulatory Function were Measured in Rats Using a Small Animal Implanted Physiological Signal Telemetry System
The anesthetic activity of the compounds was assessed in rats using a LORR assay and the up and down method was used to determine ED50. […] A small animal implantable physiological signal telemetry system from DSI (Data Science International, Inc.) was used to measure the changes in heart rate (HR) and blood pressure in rats during 30 min after administration. Then mean arterial pressure (MAP) and HR were used as representative indicators to determine hemodynamic stability of the compounds of the present invention in rats.
A small animal implantable physiological signal telemetry system from DSI (Data Science International, Inc.) including implants (RATHD-521, DSI, United States), receiver boards (RPC-1, DSI, United States), signal conversion devices (DEM, DSI, USA), perfusion glue (DSI, USA), fibrin membrane (DSI, USA), etc.
First, animal models were established. A left ventricular catheter, an abdominal aortic catheter and ECG wires were placed into rats. At least one week after surgery, data were recorded.
Administration procedure: rats were put into a restraint device with a 20 G indwelling catheter placed into a lateral tail vein. After administration of 0.2 mL heparin, a pre-filled extension tube was attached and taped to the tail vein to secure the extension tube. Then the rats were removed from the restraint device to a cage before placing them together on the signal receiver. […] Finally, the pharmacological effects, adverse reactions, and behavioural manifestations of the rats were observed and recorded
Data collection: After setting the data collection parameters on the software, the power of the implant was turned on to start data collection. In this experiment, data recording frequency was set to 15 s. Data collection was continuously recorded for 30 min before and after administration of the drugs in rats. After data acquisition, the test was stopped.

The subject of data set [2] is rats. Type of data set: in vivo, rat. The note with it: rats of the MAP/HR figures, 2×ED50, tail vein.
For data set [3], the system named is secretion of cortisol, H295R cell line. In words: cells. Format: cell-based. As to conditions: for EC50: read-out: EC50 (Cortisol). How it is done: (§1) The Effects of the Compounds on Adrenocortical Function In Vitro Test
(§2) Then secretion of the cortisol and corticosterone in the supernatant, was measured using HPLC-MS/MS method to determine whether the compounds of the present invention had adrenotoxic potential.

The subject of data set [4] is secretion of corticosterone, H295R cell line. In words: cells. Type of data set: cell-based. As to conditions: for EC50: read-out: EC50 (Corticosterone). How it is done: as §1, §2
For data set [5], the system named is rats. How it is done:
Pharmacological Effects of the Compounds on Continuous Infusion in Rats
Adult male Sprague-Dawley rats with body weight ranging from 250 to 300 gm were selected for continuous infusion test. […] Time to recovery of righting reflex from stopping infusion, and time to fully awake from stopping infusion were recorded.

The mark [6] stands for this setting: H295R cell line, 0.1-10000 nM, HPLC-MS/MS, Table E3.
Setting [7] is: continuous tail vein infusion at 2×MIR, LORR maintained 1 hour, Table E4.
Setting [8] is: H295R cell line, 0.1-10000 nM, HPLC-MS/MS, Table D3.
Where [9] appears, read: continuous tail vein infusion at 2×MIR, LORR maintained 1 hour, Table D4.
[10] abbreviates: emulsion, continuous infusion at 2×MIR.

Read-outs that look alike come from different tables or passages of the source. A value given as a limit tells only on which side of the number the result lay.

Consider `CC(OC(=O)c1c(F)ncn1C(C)c1ccccc1)=C1CCCC1=O` (stereo not drawn) [Compound E31], for which the “recovery time of the test animals' righting reflex” value in data set [1] was 1.75 min. The “recovery time of the test animals' righting reflex” value in data set [2] is on record as 105 s. Moreover, in data set [3] (setting [6]), the “Cortisol as an indicator to determine the presence of inhibition” value (“Cortisol as an indicator … of inhibition” below) was determined as 0 and the EC50 is more than 10 µM. Further, in data set [4] (setting [6]), the “Corticosterone as an indicator to determine the presence of inhibition” value (shortened to “Corticosterone as an indicator … of inhibition”) was found to be 0 and the EC50 is more than 10 µM. In data set [5] (setting [7]), the Onset time fell in the range of 3 to 4 min; the “Recovery time after stopping infusion” value fell in the range of 8 to 11 min; the “Types and incidence of adverse reactions” value is listed as “Tremor (3/6)”.

In the case of `C[C@H](c1ccccc1)n1cncc1C(=O)OC(C)(C)C#CC#CC(C)(C)O` [Compound D38], the results for the “recovery time of the test animals' righting reflex” value in data set [1] and in data set [2] were 3.22 min and 193 s, respectively. Also, the “Cortisol as an indicator … of inhibition” value in data set [3] (setting [8]) came to 0. Also, the EC50 was more than 10 µM in data set [3] (Homo sapiens, NCI-H295R) and more than 10 µM in data set [4] (Homo sapiens, NCI-H295R). In data set [4] (setting [8]), the “Corticosterone as an indicator … of inhibition” value was 0. Further, the Onset time in data set [5] (setting [9]) fell in the range of 3 to 4 min. For the same compound, the “Recovery time after stopping infusion” value in data set [5] (setting [9]) lay in the range of 12 to 14 min. The “Types and incidence of adverse reactions” value in data set [5] (setting [9]) is recorded as “Tremor (5/6)”.

`CCC1(OC(=O)c2cncn2[C@H](C)c2ccccc2)COC1` [Compound B18]: the “recovery time of the test animals' righting reflex” value is 4.65 min in data set [1] and 279 s in data set [2]. Besides, in data set [3] (H295R, Table B3), the “Cortisol as an indicator … of inhibition” value is listed as 0. The EC50 in data set [3] (Homo sapiens, NCI-H295R) is more than 1 µM; in data set [4] (Homo sapiens, NCI-H295R) it was more than 1 µM. Further, the “Corticosterone as an indicator … of inhibition” value in data set [4] (H295R, Table B3) is reported as 0. For the same compound, the “Recovery time after stopping infusion” value in data set [5] (after 1 hour infusion at 2×MIR) fell in the range of 15 to 18 min. For the same compound, in data set [5] (continuous infusion 2×MIR), the “Adverse reactions: Tremor (incidence)” value was “Tremor (4/6)”. The “Onset time” value in data set [5] (setting [10]) lay in the range of 3 to 4 min.

As to `C=C=CC1(OC(=O)c2c(C(F)(F)F)ncn2[C@H](C)c2ccccc2)COC1` [Compound E163], the “recovery time of the test animals' righting reflex” value in data set [1] is listed as 1.58 min. For the same compound, the “recovery time of the test animals' righting reflex” value in data set [2] was 95 s. For the same compound, in data set [3] (setting [6]), the “Cortisol as an indicator … of inhibition” value was 0 and the EC50 was more than 10 µM. Further, in data set [4] (setting [6]), the “Corticosterone as an indicator … of inhibition” value was determined as 0 and the EC50 was more than 10 µM.

Consider `C[C@H](c1ccccc1)n1cnc(F)c1C(=O)OC(C)(C)C` [Compound E12], for which, in data set [1], the “recovery time of the test animals' righting reflex” value came to 3.57 min. Moreover, the “recovery time of the test animals' righting reflex” value in data set [2] was 214 s. Also, in data set [3] (setting [6]), the “Cortisol as an indicator … of inhibition” value was 0. In addition, the EC50 in data set [3] (Homo sapiens, NCI-H295R) was more than 10 µM. For the same compound, the “Corticosterone as an indicator … of inhibition” value in data set [4] (setting [6]) is 0. The EC50 in data set [4] (Homo sapiens, NCI-H295R) was more than 10 µM. Moreover, in data set [5] (setting [7]), the Onset time lay in the range of 2 to 3 min; the “Recovery time after stopping infusion” value was in the range of 11 to 23 min; the “Types and incidence of adverse reactions” value is reported as “Tremor (2/6)”.

As for `CCCC1(COC(=O)c2cncn2[C@H](C)c2ccccc2)COC1` [Compound B10], the “recovery time of the test animals' righting reflex” value in data set [1] was determined as 1.35 min; in data set [2], 81 s. Moreover, the “Cortisol as an indicator … of inhibition” value in data set [3] (H295R, Table B3) stood at 0. Moreover, the EC50 in data set [3] (Homo sapiens, NCI-H295R) is more than 1 µM; in data set [4] (Homo sapiens, NCI-H295R), more than 1 µM. Besides, the “Corticosterone as an indicator … of inhibition” value in data set [4] (H295R, Table B3) is given as 0. Also, the “Recovery time after stopping infusion” value in data set [5] (after 1 hour infusion at 2×MIR) lay within 9 to 12 min. Also, the “Adverse reactions: Tremor (incidence)” value in data set [5] (continuous infusion 2×MIR) is listed as “Tremor (3/6)”. For the same compound, in data set [5] (setting [10]), the “Onset time” value was in the range of 3 to 4 min.

Turning to `COCC1(CSC(=O)c2cncn2[C@H](C)c2ccccc2)CCC1` [Compound A28], the “recovery time of the test animals' righting reflex” value was 7.25 min in data set [1] and 435 s in data set [2]. Also, in data set [3] (H295R, Table A3), the “Cortisol as an indicator … of inhibition” value was determined as 0. Also, the EC50 in data set [3] (Homo sapiens, NCI-H295R) was more than 1 µM; in data set [4] (Homo sapiens, NCI-H295R) it was more than 1 µM. In addition, the “Corticosterone as an indicator … of inhibition” value in data set [4] (H295R, Table A3) is 0.

With `C/C(OC(=O)c1c(Cl)nc(Cl)n1[C@H](C)c1ccccc1)=C1\CCCC1=O` [Compound E146], the “recovery time of the test animals' righting reflex” value in data set [1] is on record as 3.35 min; in data set [2], 201 s. Also, the “Cortisol as an indicator … of inhibition” value in data set [3] (setting [6]) is on record as 0. Also, the EC50 in data set [3] (Homo sapiens, NCI-H295R) was more than 10 µM; in data set [4] (Homo sapiens, NCI-H295R), more than 10 µM. In data set [4] (setting [6]), the “Corticosterone as an indicator … of inhibition” value was determined as 0.

As for `COCC1(COC(=O)c2c(C(F)(F)F)ncn2[C@H](C)c2ccccc2)CCC1` [Compound E157], the “recovery time of the test animals' righting reflex” value stood at 3.03 min in data set [1] and 182 s in data set [2]. Besides, the “Cortisol as an indicator … of inhibition” value in data set [3] (setting [6]) is on record as 0. In addition, the EC50 was more than 10 µM in data set [3] (Homo sapiens, NCI-H295R) and more than 10 µM in data set [4] (Homo sapiens, NCI-H295R). Also, the “Corticosterone as an indicator … of inhibition” value in data set [4] (setting [6]) is 0.

In the case of `C[C@H](c1ccccc1)n1cncc1C(=O)SCC1COC1` [Compound B29], the results for the “recovery time of the test animals' righting reflex” value in data set [1] and in data set [2] were 1.87 min and 112 s, respectively. The “Cortisol as an indicator … of inhibition” value in data set [3] (H295R, Table B3) stood at 0. Also, the EC50 was more than 10 µM in data set [3] (Homo sapiens, NCI-H295R) and more than 10 µM in data set [4] (Homo sapiens, NCI-H295R). For the same compound, the “Corticosterone as an indicator … of inhibition” value in data set [4] (H295R, Table B3) is listed as 0. Besides, the “Recovery time after stopping infusion” value in data set [5] (after 1 hour infusion at 2×MIR) lay in the range of 8 to 10 min. For the same compound, in data set [5] (continuous infusion 2×MIR, in words), the “Types and incidence of adverse reactions” value is listed as “No”. Further, in data set [5] (setting [10]), the “Onset time” value lay in the range of 2 to 3 min.

Turning to `C=CCC1(OC(=O)c2cncn2[C@H](C)c2ccccc2)COC1` [Compound D41], the “recovery time of the test animals' righting reflex” value in data set [1] came out at 5.92 min; in data set [2], 355 s. In addition, the “Cortisol as an indicator … of inhibition” value in data set [3] (setting [8]) stood at 0. Also, the EC50 was more than 10 µM in data set [3] (Homo sapiens, NCI-H295R) and more than 10 µM in data set [4] (Homo sapiens, NCI-H295R). The “Corticosterone as an indicator … of inhibition” value in data set [4] (setting [8]) was 0.

For `CC#CCOC(=O)c1c(C(F)(F)F)ncn1[C@H](C)c1ccccc1` [Compound E161], the results for the “recovery time of the test animals' righting reflex” value in data set [1] and in data set [2] were 2.33 min and 140 s, respectively. In addition, the “Cortisol as an indicator … of inhibition” value in data set [3] (setting [6]) is reported as 0. Besides, the EC50 in data set [3] (Homo sapiens, NCI-H295R) is more than 10 µM; in data set [4] (Homo sapiens, NCI-H295R), more than 10 µM. Also, the “Corticosterone as an indicator … of inhibition” value in data set [4] (setting [6]) is reported as 0.

These data come from patent publication US11434205B2, “Substituted imidazole carboxylate derivatives and the use thereof” (priority 2018, dated 2022).
